Measured values: US20240425496A1, “AZETIDINYL PYRIMIDINES AND USES THEREOF” (Aerie Pharmaceuticals, Inc., priority 2021, published 2024)

Tests used:
[1] = target: TYK2 (Homo sapiens (Human), UniProt P29597); assay: JAK kinase assay (KINASE-GLO luminescent), TYK2 enzyme; format: biochemical; settings: TYK2 enzyme 10 nM, Abl peptide substrate
Method: (§1) All compounds were initially prepared as 10 mM stocks in anhydrous dimethylsulfoxide (DMSO). […] Test compounds were then serially diluted 1:5 in DMSO for an 11-point concentration response and further diluted in the assay buffer bringing all compound concentrations to a final range of 100 μM to 10 μM in 2.5% DMSO. […] The reaction was initiated by the addition of 10 μL of 4× stock solution ATP (2 μM). Reactions were thoroughly mixed manually, covered, and allowed to incubate at room temperature for 75 min. Protein kinase activity was quantitated using Promega's KINASE-GLO™ luminescent Kinase Assay Kit according to the manufacturer's directions. ATP concentrations remaining in Test wells following the termination of the enzymatic reaction were compared against control wells containing equivalent amounts of DMSO containing no inhibitor (CTRL). […] Percent of Control (POC) values were determined for each concentration of compound tested according to the equation: […]
(§2) IC50 values were calculated using the following 4-parameter logistic curve-fitting algorithm:
(§3) Compounds were prepared in the exact same manner as described in the ROCK Kinase Assay with the exception to the substrate and enzyme. […] All other steps and solutions remain identical to the ROCK Kinase Assay above.

[2] = target: JAK1 (Homo sapiens (Human), UniProt P23458); assay: JAK kinase assay (KINASE-GLO luminescent), JAK1 enzyme; format: biochemical; settings: JAK1 enzyme 10 nM, Abl peptide substrate
JAK1, sequence (P23458 whole entry, species assumed): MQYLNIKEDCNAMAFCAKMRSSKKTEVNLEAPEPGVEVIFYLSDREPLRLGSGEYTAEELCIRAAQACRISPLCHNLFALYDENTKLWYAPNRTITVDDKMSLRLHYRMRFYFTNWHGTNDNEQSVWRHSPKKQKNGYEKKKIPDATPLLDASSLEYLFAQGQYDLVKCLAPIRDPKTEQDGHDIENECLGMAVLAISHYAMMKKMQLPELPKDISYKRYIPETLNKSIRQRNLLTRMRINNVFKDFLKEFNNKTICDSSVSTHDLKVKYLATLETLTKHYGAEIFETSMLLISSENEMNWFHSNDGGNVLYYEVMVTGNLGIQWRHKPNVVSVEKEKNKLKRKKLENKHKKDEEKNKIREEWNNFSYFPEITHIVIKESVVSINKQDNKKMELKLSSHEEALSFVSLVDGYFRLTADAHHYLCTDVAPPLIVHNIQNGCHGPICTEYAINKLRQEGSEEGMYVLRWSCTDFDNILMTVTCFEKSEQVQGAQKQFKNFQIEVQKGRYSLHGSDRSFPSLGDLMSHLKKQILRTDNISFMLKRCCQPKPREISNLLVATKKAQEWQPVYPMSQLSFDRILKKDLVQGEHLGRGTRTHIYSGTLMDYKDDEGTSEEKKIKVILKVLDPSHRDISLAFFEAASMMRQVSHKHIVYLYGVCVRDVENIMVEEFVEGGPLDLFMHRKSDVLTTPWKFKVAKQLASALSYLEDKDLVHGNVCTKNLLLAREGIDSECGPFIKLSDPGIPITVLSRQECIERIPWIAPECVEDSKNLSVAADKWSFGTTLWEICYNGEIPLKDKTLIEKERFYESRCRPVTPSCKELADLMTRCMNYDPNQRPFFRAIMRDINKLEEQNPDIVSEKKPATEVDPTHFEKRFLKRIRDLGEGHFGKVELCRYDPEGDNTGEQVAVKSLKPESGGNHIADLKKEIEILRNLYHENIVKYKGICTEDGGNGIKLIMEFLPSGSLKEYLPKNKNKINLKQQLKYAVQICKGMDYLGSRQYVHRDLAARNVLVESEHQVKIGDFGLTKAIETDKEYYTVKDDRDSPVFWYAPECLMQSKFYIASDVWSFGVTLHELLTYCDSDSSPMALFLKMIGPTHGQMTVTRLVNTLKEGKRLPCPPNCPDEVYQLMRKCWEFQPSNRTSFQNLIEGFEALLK
Method: as §1, §2, §3

TYK2, sequence (P29597 whole entry, species assumed): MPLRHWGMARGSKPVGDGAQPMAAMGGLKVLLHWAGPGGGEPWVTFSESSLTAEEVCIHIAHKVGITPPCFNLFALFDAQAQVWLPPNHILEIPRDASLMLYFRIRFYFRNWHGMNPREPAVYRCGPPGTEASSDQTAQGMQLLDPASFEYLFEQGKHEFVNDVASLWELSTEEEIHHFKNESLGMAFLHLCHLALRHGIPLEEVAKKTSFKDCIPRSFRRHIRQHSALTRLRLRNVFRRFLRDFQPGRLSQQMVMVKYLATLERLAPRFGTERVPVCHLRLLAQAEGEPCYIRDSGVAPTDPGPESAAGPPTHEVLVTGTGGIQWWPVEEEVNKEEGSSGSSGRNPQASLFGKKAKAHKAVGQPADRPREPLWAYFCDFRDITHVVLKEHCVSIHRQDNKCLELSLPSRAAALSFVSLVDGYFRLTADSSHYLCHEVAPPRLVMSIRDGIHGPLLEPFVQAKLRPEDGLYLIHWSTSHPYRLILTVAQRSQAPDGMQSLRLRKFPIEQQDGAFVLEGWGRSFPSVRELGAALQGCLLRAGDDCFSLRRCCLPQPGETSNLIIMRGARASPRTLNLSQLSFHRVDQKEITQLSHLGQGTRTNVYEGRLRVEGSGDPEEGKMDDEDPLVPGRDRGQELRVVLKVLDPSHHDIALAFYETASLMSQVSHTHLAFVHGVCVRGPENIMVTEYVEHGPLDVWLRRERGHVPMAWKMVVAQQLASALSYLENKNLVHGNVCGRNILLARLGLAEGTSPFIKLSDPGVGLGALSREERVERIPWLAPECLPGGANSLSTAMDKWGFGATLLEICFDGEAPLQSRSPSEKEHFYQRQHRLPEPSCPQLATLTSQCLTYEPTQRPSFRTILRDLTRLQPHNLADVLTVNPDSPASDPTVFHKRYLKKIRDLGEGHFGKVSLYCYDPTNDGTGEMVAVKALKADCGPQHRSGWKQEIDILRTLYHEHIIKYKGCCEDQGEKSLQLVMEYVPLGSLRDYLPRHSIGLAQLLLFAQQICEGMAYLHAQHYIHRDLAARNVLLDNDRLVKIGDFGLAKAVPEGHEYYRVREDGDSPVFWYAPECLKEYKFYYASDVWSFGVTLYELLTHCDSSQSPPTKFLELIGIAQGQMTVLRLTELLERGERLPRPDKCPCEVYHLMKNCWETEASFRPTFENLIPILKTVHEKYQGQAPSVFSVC

Compound	IC50 [1] [nM]	IC50 [2] [nM]
Cc1cnc(Nc2cnn(C)c2)nc1N1CC(CC#N)(N2CCN(C)CC2)C1 [E80, 2-(1-(5-methyl-2-((1-methyl-1H-pyrazol-4-yl)amino)pyrimidin-4-yl)-3-(4-methylpiperazin-1-yl)azetidin-3-yl)acetonitrile]	< 20	< 20
Cc1cnc(Nc2ccc(N3CCOCC3)cc2)nc1N1CC(C)(NC(=O)c2cccc(F)c2)C1 [E311]	< 50	< 50
Cn1cc(Nc2ncc(Cl)c(N3CC(CC#N)(N4CCN5C[C@H](F)C[C@H]5C4)C3)n2)cn1 [E163a]	< 10	< 10
Cc1cnc(Nc2ccc3c(c2)CN(C)C3)nc1N1CC(CC#N)(N2CCC(F)(F)CC2)C1 [E119-A]	< 10	< 10
Cc1cnc(Nc2cnn(C)c2)nc1N1CC(CC#N)(N2CCC3C(CC2)C3(F)F)C1 (stereo not shown) [E160a]	< 10	< 10
Cc1cc(Nc2ncc(C)c(N3CC(CC#N)(NC(=O)c4cc(F)cc(F)c4C)C3)n2)sn1 [E317]	< 20	< 30
COCCN1CCN(C2(CC#N)CN(c3nc(Nc4cnn(CCOC)c4)ncc3C)C2)CC1 [E175-D]	< 120	< 120
Cc1cnc(Nc2ccc3c(c2)CN(C)C3)nc1N1CC(CC#N)(N2CCC3(CC2)COC3)C1 [E216-G]	< 10	< 10
Cc1cnc(Nc2cccnc2)nc1N1CC(CC#N)(N2CCN(C)CC2)C1 [E117]	< 20	< 50
Cc1cc(Nc2ncc(C)c(N3CC(CC4CC4)C3)n2)sn1 [E109a]	< 10	< 50
Cc1cc(Nc2ncc(C)c(N3CC(CC#N)(NC(=O)c4cccnc4)C3)n2)sn1 [E303]	< 30	< 20
Cc1cnc(Nc2cnn(C)c2)nc1N1CC(O)(CF)C1 [E175-A]	< 120	< 100
Cc1cnc(Nc2cnn(C)c2)nc1N1CC(CCO)(N2CCN3C[C@H](F)C[C@H]3C2)C1 [E167a]	< 50	< 50

The next lines start with the values.

IC50 [1] [nM]	IC50 [2] [nM]	Compound
< 10	< 10	Cc1cc(Nc2ncc(C)c(N3CC(CC#N)(N4CCC(CCF)CC4)C3)n2)sn1 [E14]
< 10	< 10	Cc1cc(Nc2ncc(C)c(N3CC(CC#N)(N4CCCC5(COC5)C4)C3)n2)sn1 [E41]
< 10	< 20	Cc1cc(Nc2ncc(C)c(N3CC(CC#N)(N4CCN(C)[C@@H](C)C4)C3)n2)sn1 [E52A]
< 10	< 10	COC1CCN(C2(CC#N)CN(c3nc(Nc4cc(C)ns4)ncc3C)C2)CC1 [E69a]
< 50	< 100	Cc1cc(Nc2ncc(C)c(N3CC(CC#N)(N4CCN5CCC[C@]5(C)C4)C3)n2)sn1 [E83a]
< 10	< 50	Cc1cc(Nc2ncc(C)c(N3CC(CCO)(N4CCCCC4)C3)n2)sn1 [E66a]
< 10	< 50	Cc1cc(Nc2ncc(C)c(N3CC(CC#N)(N4C[C@@H](C)N(C)[C@@H](C)C4)C3)n2)sn1 [E34]
< 20	< 50	Cc1cc(Nc2ncc(C)c(N3CC(CC#N)(NC(=O)C4CCCC4)C3)n2)sn1 [E297]
< 10	< 50	Cc1cc(Nc2ncc(C)c(N3CC(CC#N)(N4CC5OCCN(C)C5C4)C3)n2)sn1 (stereo not shown) [E98a]
< 10	< 10	Cc1cc(Nc2ncc(C)c(N3CC(CC#N)(N4CCN5C[C@H](F)C[C@H]5C4)C3)n2)sn1 [E67a]
< 50	< 50	Cc1cc(Nc2ncc(C)c(N3CC(CC#N)(N(C)C4CN(C)C4)C3)n2)sn1 [E37]
< 20	< 20	Cc1cc(Nc2ncc(C)c(N3CC(CC#N)(N4CCN5CC(F)(F)C[C@H]5C4)C3)n2)sn1 [E81a]
< 20	< 15	Cc1cc(Nc2ncc(C)c(N3CC(CC#N)(N4CCN(CC(C)C)CC4)C3)n2)sn1 [E51]
